Laboratory results taken from patent publication US7087375B1, “Method for determining the mechanism of HIV RT inhibitors” (priority 2000, dated 2006).
“And” between values parts separate entries of the source, which are not always exact repeats. Equal values may be shown once. Read-outs that look alike come from different tables or passages of the source. Marks after values point to notes of the source that are not given here.

Experiments:
Type in all cases: biochemical
[1] = target: T1, HIV-1 RT mutant 41/67/70/215 (Human immunodeficiency virus type 1 group M subtype B, UniProt P04585, D654N/K657R/M628L/T802Y); conditions: 41/67/70/215 RT
T1 construct: The final RT products, in a heterodimeric form (p66/p51); made in house; host or cells: E. coli XL1-Blue (vector pKK233-2)

[2] = target: T2, HIV-1 RT mutant 69S-SG (Human immunodeficiency virus type 1 group M subtype B, UniProt P04585, INS655SS/T656G/T656S); conditions: 69S-SG RT
T2 construct: The final RT products, in a heterodimeric form (p66/p51); made in house; host or cells: E. coli XL1-Blue (vector pKK233-2)

[3] = target: T3, HIV-1 RT mutant 41/69S-SS/215 (Human immunodeficiency virus type 1 group M subtype B, UniProt P04585, INS655SS/M628L/T656S/T802Y); conditions: 41/69S-SS/215 RT
T3 construct: The final RT products, in a heterodimeric form (p66/p51); made in house; host or cells: E. coli XL1-Blue (vector pKK233-2)

[4] = target: T4, HIV-1 RT mutant 41/67/70/184/210/211/214/215 (Human immunodeficiency virus type 1 group M subtype B, UniProt P04585, D654N/K657R/L797W/L801F/M628L/M771V/R798K/T802Y); conditions: 41/67/70/184/210/211/214/215 RT
T4 construct: The final RT products, in a heterodimeric form (p66/p51); made in house; host or cells: E. coli XL1-Blue (vector pKK233-2)

[5] = target: T5, HIV-1 RT wild type (HXB2) (Human immunodeficiency virus type 1 group M subtype B, UniProt P04585); conditions: for Fold resistance in RT-assay relative to HXB2: wild type HXB2 RT (reference); for Ki / Ki/Km: wild type HXB2 RT
T5 construct: The final RT products, in a heterodimeric form (p66/p51); made in house; host or cells: E. coli XL1-Blue (vector pKK233-2)

[6] = target: T6, HIV-1 RT mutant 69S-AG (Human immunodeficiency virus type 1 group M subtype B, UniProt P04585, INS655SA/T656G/T656S); conditions: 69S-AG RT
T6 construct: The final RT products, in a heterodimeric form (p66/p51); made in house; host or cells: E. coli XL1-Blue (vector pKK233-2)

[7] = target: T7, HIV-1 RT mutant 41/67/70/184/215 (Human immunodeficiency virus type 1 group M subtype B, UniProt P04585, D654N/K657R/M628L/M771V/T802Y); conditions: 41/67/70/184/215 RT
T7 construct: The final RT products, in a heterodimeric form (p66/p51); made in house; host or cells: E. coli XL1-Blue (vector pKK233-2)

[8] = target: T8, HIV-1 RT mutant 41/184/215 (Human immunodeficiency virus type 1 group M subtype B, UniProt P04585, M628L/M771V/T802Y); conditions: 41/184/215 RT
T8 construct: The final RT products, in a heterodimeric form (p66/p51); made in house; host or cells: E. coli XL1-Blue (vector pKK233-2)

[9] = target: HIV-1 RT mutant 41/215 (Human immunodeficiency virus type 1 group M subtype B, UniProt P04585, M628L/T802Y); experiment: RT inhibition assay (Lenti RT, polyrA/oligo(dT), BrdUTP); conditions: 41/215 RT
[10] = target: T9, HIV-1 RT mutant 69S-SS (Human immunodeficiency virus type 1 group M subtype B, UniProt P04585, INS655SS/T656S); conditions: 69S-SS RT
T9 construct: The final RT products, in a heterodimeric form (p66/p51); made in house; host or cells: E. coli XL1-Blue (vector pKK233-2)

[11] = no extra additions (without ATP)
[12] = nontreated pyrophosphatase ATP 3.2 mM (control), single experiment
[13] = pyrophosphatase treated ATP 3.2 mM, single experiment

Substance: AZT-TP
- Fold resistance in RT-assay relative to HXB2 ([1]; ATP 3.2 mM): 16.6 fold and 16.6 (+/−0.3) fold
- Ki ([1]; ATP 3.2 mM): 39 nM
- Ki/Km ([1]; ATP 3.2 mM): 0.53
- Fold resistance in RT-assay relative to HXB2 ([1]; ATP 3.2 mM + PPi 150 μM): 12.6 fold and 12.6 (+/−3) fold
- Ki ([1]; ATP 3.2 mM + PPi 150 μM): 280 nM
- Ki/Km ([1]; ATP 3.2 mM + PPi 150 μM): 1.39
- Fold resistance in RT-assay relative to HXB2 ([1]; ATP 6.0 mM): 15.9 (+/−4) fold
- Ki ([1]; ATP 6.0 mM): 176 nM
- Ki/Km ([1]; ATP 6.0 mM): 0.78
- Ki ([1]; ATP […]): 6.4 nM
- Ki/Km ([1]; ATP […]): 0.1
- Fold resistance in RT-assay relative to HXB2 ([1]; GTP 0.5 mM): 1.2 (+/−0.03) fold
- Ki ([1]; GTP 0.5 mM): 4 nM
- Ki/Km ([1]; GTP 0.5 mM): 0.034
- Fold resistance in RT-assay relative to HXB2 ([1]; PPi 150 μM): 10.5 fold and 10.5 (+/−3) fold
- Ki ([1]; PPi 150 μM): 83 nM
- Ki/Km ([1]; PPi 150 μM): 0.92
- Fold resistance in RT-assay relative to HXB2 [1, 11]: 0.9 fold and 0.9 (+/−0.1) fold
- Ki/Km [1, 11]: 0.03
- Ki [1, 12]: 20 nM
- Ki/Km [1, 12]: 0.46*
- Ki [1, 13]: 16 nM
- Ki/Km [1, 13]: 0.42*
- Fold resistance in RT-assay relative to HXB2 ([2]; ATP 3.2 mM): 8.4 fold
- Ki ([2]; ATP 3.2 mM): 96 nM
- Ki/Km ([2]; ATP 3.2 mM): 0.27
- Fold resistance in RT-assay relative to HXB2 ([2]; without ATP): 1.1 fold
- Ki ([2]; without ATP): 3.8 nM
- Ki/Km ([2]; without ATP): 0.038
- Fold resistance in RT-assay relative to HXB2 ([3]; ATP 3.2 mM): 20 fold and 19.7 fold
- Ki ([3]; ATP 3.2 mM): 133 nM
- Ki/Km ([3]; ATP 3.2 mM): 0.63
- Fold resistance in RT-assay relative to HXB2 ([3]; without ATP): 0.9 fold
- Ki ([3]; without ATP): 1.4 nM
- Ki/Km ([3]; without ATP): 0.031
- Fold resistance in RT-assay relative to HXB2 ([4]; ATP 3.2 mM): 2.8 fold
- Ki ([4]; ATP 3.2 mM): 52 nM
- Ki/Km ([4]; ATP 3.2 mM): 0.09
- Fold resistance in RT-assay relative to HXB2 ([4]; without ATP): 0.3 fold
- Ki ([4]; without ATP): 1.3 nM
- Ki/Km ([4]; without ATP): 0.011
- Fold resistance in RT-assay relative to HXB2 ([5]; ATP 3.2 mM): 1.0 fold
- Fold resistance in RT-assay relative to HXB2 ([5]; without ATP): 1.0 fold
- Ki ([5]; ATP 3.2 mM): 10 nM
- Ki/Km ([5]; ATP 3.2 mM): 0.032
- Ki ([5]; ATP 3.2 mM + PPi 150 μM): 59 nM
- Ki/Km ([5]; ATP 3.2 mM + PPi 150 μM): 0.11
- Ki ([5]; ATP 6.0 mM): 40 nM
- Ki/Km ([5]; ATP 6.0 mM): 0.049
- Ki ([5]; ATP […]): 4.8 nM
- Ki/Km ([5]; ATP […]): 0.02
- Ki ([5]; GTP 0.5 mM): 9 nM
- Ki/Km ([5]; GTP 0.5 mM): 0.028
- Ki ([5]; PPi 150 μM): 26 nM
- Ki/Km ([5]; PPi 150 μM): 0.087
- Ki [5, 11]: 5.8 nM
- Ki/Km [5, 11]: 0.034
- Fold resistance in RT-assay relative to HXB2 ([6]; ATP 3.2 mM): 14.0 fold
- Ki ([6]; ATP 3.2 mM): 125 nM
- Ki/Km ([6]; ATP 3.2 mM): 0.45
- level of resistance in RT assay relative to wild type ([6]; GTP 0.5 mM): 1.2–1.3 fold
- level of resistance in RT assay relative to wild type ([6]; PPi 150 μM): 3.3
- Fold resistance in RT-assay relative to HXB2 ([6]; without ATP): 1.9 fold
- Ki ([6]; without ATP): 6.4 nM
- Ki/Km ([6]; without ATP): 0.064
- Fold resistance in RT-assay relative to HXB2 ([7]; ATP 3.2 mM): 4.1 fold
- Ki ([7]; ATP 3.2 mM): 50 nM
- Ki/Km ([7]; ATP 3.2 mM): 0.13
- Fold resistance in RT-assay relative to HXB2 ([7]; without ATP): 0.3 fold
- Ki ([7]; without ATP): 0.6 nM
- Ki/Km ([7]; without ATP): 0.01
- Fold resistance in RT-assay relative to HXB2 ([8]; ATP 3.2 mM): 5.9 fold
- Ki/Km ([8]; ATP 3.2 mM): 0.19
- Fold resistance in RT-assay relative to HXB2 ([8]; without ATP): 1.3 fold
- Ki ([8]; without ATP): 2.2 nM
- Ki/Km ([8]; without ATP): 0.045
- Fold resistance in RT-assay relative to HXB2 ([9]; ATP 3.2 mM): 3 fold and 2.9 fold
- Ki ([9]; ATP 3.2 mM): 34 nM
- Ki/Km ([9]; ATP 3.2 mM): 0.094
- level of resistance in RT assay relative to wild type ([9]; GTP 0.5 mM): 1.2–1.3 fold
- level of resistance in RT assay relative to wild type ([9]; PPi 150 μM): 1.1 fold
- Fold resistance in RT-assay relative to HXB2 ([9]; without ATP): 0.8 fold
- Ki ([9]; without ATP): 3 nM
- Ki/Km ([9]; without ATP): 0.027
- Fold resistance in RT-assay relative to HXB2 ([10]; ATP 3.2 mM): 3.0 fold
- Ki ([10]; ATP 3.2 mM): 21 nM
- Ki/Km ([10]; ATP 3.2 mM): 0.095
- Fold resistance in RT-assay relative to HXB2 ([10]; without ATP): 0.8 fold
- Ki ([10]; without ATP): 1.7 nM
- Ki/Km ([10]; without ATP): 0.026
